System: HIV with mutations in the HIV protease sequence
Assay: Phenotypic fold resistance to protease inhibitors, protease mutations 84A/84L/84C/54M/54L/54V in a background (Examples 8-13)
Format: cell-based, HIV-1
Protocol: As is the case with the genotyping assays, the recombinant virus assay starts with the amplification of viral target sequences by means of PCR. The amplicons are incorporated into a proviral laboratory clone with sequences homologous to those present in the amplicon deleted. This generates a stock of chimeric viruses. The viruses are tested for their ability to grow in the presence of different concentrations of drugs. Results are obtained by calculating IC50 values for each inhibitor and by reporting the results as IC50 values, expressed in μM concentrations, or by computing the ratio of the IC50 values found for the chimeric virus to the IC50 values found for a wild type susceptible laboratory virus tested in parallel. In the latter case, resistance is expressed as “fold-resistance” compared to a wild-type susceptible HIV-1 strain. In order to meet the need for high-volume testing and a short turn-around time for an individual test, the latest generation of phenotyping assays has undergone further modifications. The use of reporter gene systems for susceptibility testing allows the implementation of laboratory automation and standardization. See Pauwels, et al., J. Virol. Methods 20, 309-321 (1998); Paulous, S., et al., International Workshop on HIV Drug Resistance, Treatment Strategies and Eradication, St. Petersburg, Fla., USA. Abstr. 46 (1997); and Deeks, S. G., et al., 2nd International Workshop on HIV Drug Resistance and Treatment Strategies, Lake Maggiore, Italy. Abstr. 53 (1998).
The ANTIVIROGRAM® assay (Virco) (WO 97/27480) is based on homologous recombination of patient derived HIV-1 gag/PR/RT sequences into a proviral HIV-1 clone correspondingly deleted for the gag/PR/RT sequences. See Pauwels, et al., J. Virol. Methods 20, 309-321 (1998). A similar assay (Phenosense ViroLogic) is based on enzymatic ligation of patient-derived PR/RT sequences into a correspondingly deleted proviral vector carrying an indicator gene, luciferase, inserted in the deleted HIV-1 envelope gene. See Deeks, S. G., et al., 2nd International Workshop on HIV Drug Resistance and Treatment Strategies, Lake Maggiore, Italy. Abstr. 53 (1998). Hertogs et al. Antimicrob. Agents Chemother. 44(3) 568-573 (2000) the disclosures of which are herein incorporated by reference.
The methods of monitoring HIV-1 drug resistance, may also be used in combination with phenotypic drug resistance testing of viral isolates. For example, in one embodiment, a phenotypic test is utilized that is based upon the construction of chimeric HIV-1 strains composed of the protease (PR) and reverse transcriptase (RT) gene sequences which are isolated and amplified from the patient viral RNA. These strains may subsequently be recombined inside CD4+ T cells with a standard laboratory isogenic (HXB2) HIV-1 DNA construct from which the PR/RT gene sequences were deleted. The recombinant strains may then be grown in the presence of the above-mentioned antiviral drugs and the susceptibility of the viral isolates may be expressed as fold-change value of the IC50 of the drug on the patient isolates over the IC50 of the drug on a wild-type laboratory reference strain.

For `CC(C)CN(C[C@@H](O)[C@H](Cc1ccccc1)NC(=O)O[C@H]1CCOC1)S(=O)(=O)c1ccc(N)cc1` [Amprenavir, amprenavir], the “mean fold increase in resistance” value (Table 9 #1, protease genotype WT) was 1 fold, the “mean fold increase in resistance” value (Table 9 #2, protease genotype 10I) was 1.1 fold and the “mean fold increase in resistance” value (Table 9 #3, protease genotype 46I) was 1.2 fold. The “mean fold increase in resistance” value (Table 9 #4, protease genotype 46I + 84V) was 2.3 fold, the “mean fold increase in resistance” value (Table 9 #5, protease genotype 46I + 84A) was 7.7 fold and the “mean fold increase in resistance” value (Table 9 #6, protease genotype 10I + 46I) was 5.6 fold. For the same molecule, the “mean fold increase in resistance” value (Table 9 #7, protease genotype 10I + 46I + 84V) was 4.5 fold, the “mean fold increase in resistance” value (Table 9 #8, protease genotype 10I + 46I + 84A) was 17 fold and the “mean fold increase in resistance” value (Table 9 #9, protease genotype 10L/I + 46I + 84A) was 24.9 fold. The “mean fold increase in resistance” value (Table 9 #10, protease genotype 10I + 46I + 84A) was 11 fold, the “mean fold increase in resistance” value (Table 9 #11, protease genotype 46I + 71V) was 2.2 fold and the “mean fold increase in resistance” value (Table 9 #12, protease genotype 46I + 71V + 84V/I) was 2.2 fold. For the same molecule, the “mean fold increase in resistance” value (Table 9 #13, protease genotype 46I + 71V + 84A) was 23 fold, the “mean fold increase in resistance” value (Table 9 #14, protease genotype 10F + 46I + 71V) was 4.2 fold and the “mean fold increase in resistance” value (Table 9 #15, protease genotype 10I + 46I + 71V + 84V) was 17.8 fold. The “mean fold increase in resistance” value (Table 9 #16, protease genotype 10I + 46I + 71V + 84A) was 15.2 fold, the “mean fold increase in resistance” value (Table 9 #17, protease genotype 10V + 46I + 71T + 84A) was 39.8 fold and the “mean fold increase in resistance” value (Table 9 #18, protease genotype 10I + 46I + 71V + 77I) was 0.9 fold. The “mean fold increase in resistance” value (Table 9 #19, protease genotype 10I + 46I + 71V + 77I + 84V) was 1.4 fold, the “mean fold increase in resistance” value (Table 9 #20, protease genotype 10I + 46I + 71V + 77I + 84A) was 15 fold and the “mean fold increase in resistance” value (Table 9 #21, protease genotype 10I + 33L/I + 46I + 71V + 77V/I + 84A) was 10.9 fold. For the same molecule, the “mean fold increase in resistance” value (Table 10 #1, protease genotype 10I + 36I + 71V) was 1.0 fold, the “mean fold increase in resistance” value (Table 10 #2, protease genotype 10I + 36I + 71I + 84V) was 1.1 fold and the “mean fold increase in resistance” value (Table 10 #3, protease genotype 10I + 36I + 71I + 84L) was 0.3 fold. The “mean fold increase in resistance” value (Table 11 #1, protease genotype WT) was 1.0 fold, the “mean fold increase in resistance” value (Table 11 #2, protease genotype 84V) was 2.0 fold and the “mean fold increase in resistance” value (Table 11 #3, protease genotype 84C) was 5.9 fold. The “mean fold increase in resistance” value (Table 11 #4, protease genotype 10I) was 1.1 fold, the “mean fold increase in resistance” value (Table 11 #5, protease genotype 10I + 84V) was 1.2 fold and the “mean fold increase in resistance” value (Table 11 #6, protease genotype 10I + 84C) was 3.4 fold. For the same molecule, the “mean fold increase in resistance” value (Table 11 #7, protease genotype 77I) was 0.6 fold, the “mean fold increase in resistance” value (Table 11 #8, protease genotype 77I + 84V) was 3.3 fold and the “mean fold increase in resistance” value (Table 11 #9, protease genotype 77I + 84C) was 2.2 fold. The “mean fold increase in resistance” value (Table 11 #10, protease genotype 77I + 84C) was 4.9 fold, the “mean fold increase in resistance” value (Table 11 #11, protease genotype 10I + 24I + 36I + 46I + 71V + 84C) was 12.8 fold and the “Fold change in IC50” value (Table 12, V19263, genotype 77I) was 0.6 fold. For the same molecule, the “Fold change in IC50” value (Table 12, V20160, genotype WT) was 1.0 fold, the “Fold change in IC50” value (Table 12, V021667, genotype 10I) was 1.1 fold and the “Fold change in IC50” value (Table 12, V030496, genotype 10I + 77I) was 0.5 fold. For the same molecule, the “Fold change in IC50” value (Table 12, V048869, genotype 10I + 54M + 77I + 90M) was 9.3 fold, the “Fold change in IC50” value (Table 12, V048872, genotype 33F + 54M + 77I + 90M) was 30.3 fold and the “Fold change in IC50” value (Table 12, V048873, genotype 33F + 54M + 77I + 90M) was 37.5 fold. For the same molecule, the “Fold change in IC50” value (Table 12, V048877, genotype 10I + 33F + 77I + 90M) was 7.9 fold, the “Fold change in IC50” value (Table 12, V048878, genotype 10I + 33F + 54M + 71V + 77I + 90M) was 13.7 fold and the “Fold change in IC50” value (Table 12, V048879, genotype 10I + 33F + 54M + 71V + 77I + 90M) was 14.1 fold. The “Fold change in IC50” value (Table 12, V048880, genotype 10I + 33F + 77I + 90M) was 3.8 fold, the “Fold change in IC50” value (Table 12, V052940, genotype 71V) was 0.3 fold and the “Fold change in IC50” value (Table 12, V052942, genotype 10I + 71V) was 0.5 fold. The “Fold change in IC50” value (Table 12, V052943, genotype 10I + 90M) was 0.4 fold, the “Fold change in IC50” value (Table 12, V052944, genotype 10I + 90M) was 0.7 fold and the “Fold change in IC50” value (Table 12, V052945, genotype 77I + 90M) was 0.3 fold. The “Fold change in IC50” value (Table 12, V052946, genotype 71V + 90M) was 0.5 fold, the “Fold change in IC50” value (Table 12, V052947, genotype 10I + 77I + 90M) was 1.2 fold and the “Fold change in IC50” value (Table 12, V052948, genotype 10I + 71V + 90M) was 2.0 fold. The “Fold change in IC50” value (Table 12, V052949, genotype 10I + 71V + 77I + 90M) was 0.6 fold, the “Fold change in IC50” value (Table 12, V052950, genotype 33F) was 0.7 fold and the “Fold change in IC50” value (Table 12, V052951, genotype 33F + 77I) was 0.3 fold. For the same molecule, the “Fold change in IC50” value (Table 12, V052953, genotype 10I + 33F + 77I) was 1.5 fold, the “Fold change in IC50” value (Table 12, V052954, genotype 33F + 77I + 90M) was 2.1 fold and the “Fold change in IC50” value (Table 12, V052955, genotype 33F + 71V + 90M) was 2.7 fold. For the same molecule, the “Fold change in IC50” value (Table 12, V052977, genotype 10I + 33F + 54M) was 12.2 fold, the “Fold change in IC50” value (Table 12, V052978, genotype 10I + 33F + 54M + 71V + 90M) was 19.3 fold and the “Fold change in IC50” value (Table 12, V052979, genotype 10I + 54M) was 10.4 fold. The “Fold change in IC50” value (Table 12, V052980, genotype 10I + 54M + 90M) was 1.4 fold, the “Fold change in IC50” value (Table 12, V052981, genotype 10I + 54M + 71V + 90M) was 8.9 fold and the “Fold change in IC50” value (Table 12, V052982, genotype 10I + 54M + 71V + 77I + 90M) was 3.1 fold. The “Fold change in IC50” value (Table 12, V053832, genotype 10I + 33F) was 0.6 fold.
